Legend:
[1] = Mouse pharmacokinetic study of oral GE with and without ketoconazole, plasma with and without β-glucuronidase treatment; assay type: in vivo, male mice (C57BL6J); conditions: for Concentration Ratio (Total/Free) of GE Phenolics: GE administered group; for Concentration Ratio (Total/Free) of GE Phenolics / concentration at 0 h / concentration at 0.087 h / concentration at 0.167 h / concentration at 0.25 h / concentration at 0.5 h / concentration at 1 h / concentration at 2 h / concentration at 3 h / concentration at 4 h / concentration at 6 h / concentration at 8 h / concentration at 12 h: mouse plasma; for AUC(0-t) / Cmax / Tmax / concentration at 0 h / concentration at 0.087 h / concentration at 0.167 h / concentration at 0.25 h / concentration at 0.5 h / concentration at 1 h / concentration at 2 h / concentration at 3 h / concentration at 4 h / concentration at 6 h / concentration at 8 h / concentration at 12 h: male, C57BL6J; for AUC(0-t) / Cmax / Tmax: mouse, plasma, po, 250 mg/kg
Experimental: A solution formulation of GE was prepared by using 5% ethanol, 5% Tween 80, 40% polyethylene glycol, and 50% corn oil. The dose volume was 10 mL/kg and the dose administered was 250 mg/kg GE.
Pharmacokinetic study in male mice (C57BL6J, Harlan Laboratories, Indianapolis, IN, USA) was run with 36 animals in each group at a GE dose of 250 mg/kg with a dose volume of 10 mL/kg. One group was given GE alone and in the second group GE was co-administered with KTZ (50 mg/kg). A terminal sampling design was used to collect blood samples at 0 (pre-dose), 0.08, 0.16, 0.25, 0.5, 1, 2, 3, 4, 6, 8, and 12 h. At each time, 1 mL of blood was collected in ethylenediaminetetraacetic acid di-potassium salt (K2EDTA) tubes (BD Biosciences, Franklin Lakes, NJ, USA). Plasma was separated by centrifugation of samples at 4000 rpm for 10 min and stored below −60 °C till bioanalysis. All experiments were performed with approval from the Institutional Animal Care and Use Committee (IACUC, approval code: A14031). All animals were acclimatized for five days before dosing in the experimental area. Food and water was provided ad libitum throughout the study period. Animals were marked and housed (three per cage, n = 36 per group) in polypropylene cages and maintained in controlled environmental conditions with 12 h light and dark cycles. The temperature and humidity of the room was maintained between 22 ± 3 °C and 30% to 50%, respectively, and approximately 10–12 fresh air change cycles per hour.
To confirm the presence of GE glucuronide conjugates, plasma (100 μL) was treated with βgd (20 μL, 500 units) and incubated at 37 °C for 1 h. Each sample was analyzed twice with and without β-gd treatment. Samples without gde treatment were diluted with 20 μL of buffer. Total (conjugated + free) and free ginger phenolics data were reported following bioanalysis.
All in vitro and in vivo samples were processed by protein precipitation method. An aliquot (100 μL) of the sample was spiked with 200 μL of acetonitrile containing dihydrocapsaicin as internal standard (IS) and vortex mixed for 3 min. The tubes were centrifuged at 12,000 rpm for 10 min and an aliquot of supernatant was transferred into autosampler vials for analysis. The stock solutions of 6G, 8G, 10G, and 6S were prepared in ACN/water (70:30) at 1 mg/mL. A calibration curve (CC) range of 2–2000 ng/mL was employed for the quantification of analytes and IS concentration was 150 ng/mL for each analysis. The CC consisted of blank, blank with IS and seven non-zero calibration standards. The calibration standards were within ±15% of the nominal concentration and lower limit of quantification was within ±20% of nominal. All samples were analyzed using liquid chromatography tandem mass spectrometry (LC-MS/MS) method (Agilent 6410 series, Santa Clara, CA, USA). A positive ionization mode with multiple reaction monitoring (MRM, m/z Q1/Q3) of 6G (m/z 277.1/177.1, retention time (RT) 2.0 min), 8G (m/z 305.1/177.1, RT 4.0 min), 10G (m/z 333.1/177.1, RT 7.7 min), 6S (m/z 277.1/137.1, RT 5.1 min), and IS (m/z 308.2/137.1, RT 3.4 min) was employed. The ion spray voltage was set at 3500 V, ionization temperature was set to 300 °C and drying gas flow rate was 10 L/min. Data acquisition and quantitation were performed using Mass Hunter software (Agilent Technologies, Wilmington, DE, USA). Separation was achieved using HP1100 series LC (Agilent Technologies) with an Agilent Zorbax reversed-phase (SB-C18, 2.1 × 50 mm, 5.0 μm) column. A gradient method was employed to separate the individual GE phenolics using mobile phase A (0.1% formic acid in water) and mobile phase B (Acetonitrile). The gradient elution method with 50% B at 0 min, 90% B at 5 min, held for 2.1 min, back to 50% B at 7.1 min with a flow rate of 0.2 mL/min. An injection volume of 2 μL was used for analysis. […]

[2] = Liver microsomal stability, mouse; assay type: in vitro ADME, CD1 mouse; conditions: protein 0.5 mg/mL
Experimental: (§1) Pooled liver microsomes from CD1 mouse, IGS Sprague-Dawley rat, Beagle dog, and mixed gender human were used for assays. Incubations (1 mL) consisted of liver microsomes (0.5 mg/mL), NADPH (1 mM) and 100 mM sodium phosphate buffer (pH 7.4). Following pre-incubation (10 min, 37 °C), reactions were initiated by spiking ACN/DMSO (80:20) stock solutions of GE phenolics (5 μL, 10 μM). Samples (100 μL) were withdrawn at 0, 5, 10, 15, 20 and 30 min and quenched with 200 μL acetonitrile containing internal standard. Concomitant NADPH-free control incubations were prepared similarly.

[3] = Liver microsomal stability, statements across species; assay type: in vitro ADME; conditions: CD1 (mouse), IGS Sprague-Dawley (rat), Beagle (dog), human, pooled liver microsomes, pH 7.4
Experimental: as §1

[4] = 250 mg/kg GE + 50 mg/kg KTZ oral, +KTZ −βgd

AUClast Ratio ([1]; +KTZ +βgd, reference GE group co-administered with KTZ untreated with βgd): 14
AUClast Ratio ([1]; +KTZ +βgd, reference GE group untreated with βgd): 110
AUClast Ratio ([1]; +KTZ −βgd, reference GE group untreated with βgd): 8
Concentration Ratio (Total/Free) of GE Phenolics ([1]; 0 h): 0
Concentration Ratio (Total/Free) of GE Phenolics ([1]; 0.087 h): 48
Concentration Ratio (Total/Free) of GE Phenolics ([1]; 0.167 h): 19
Concentration Ratio (Total/Free) of GE Phenolics ([1]; 0.25 h): 0
Concentration Ratio (Total/Free) of GE Phenolics ([1]; 0.5 h): 83
Concentration Ratio (Total/Free) of GE Phenolics ([1]; 1 h): 1
Concentration Ratio (Total/Free) of GE Phenolics ([1]; 2 h): 16
Concentration Ratio (Total/Free) of GE Phenolics ([1]; 3 h): 0
Concentration Ratio (Total/Free) of GE Phenolics ([1]; 4 h): 0
Concentration Ratio (Total/Free) of GE Phenolics ([1]; 6 h): 0
Concentration Ratio (Total/Free) of GE Phenolics ([1]; 8 h): 0
Concentration Ratio (Total/Free) of GE Phenolics ([1]; 12 h): 0
AUC(0-t) ([1]; 250 mg/kg GE oral, −βgd): 1.92 ng·h/mL
Cmax ([1]; 250 mg/kg GE oral, −βgd): 3.88 ng/mL
Tmax ([1]; 250 mg/kg GE oral, −βgd): 10 min
AUC(0-t) [1, 4]: 15.1 ng·h/mL
Cmax [1, 4]: 12.4 ng/mL
Tmax [1, 4]: 60 min
concentration at 0 h ([1]; 250 mg/kg GE oral, 0 h, −βgd): 0 ng/mL
concentration at 0.087 h ([1]; 250 mg/kg GE oral, 0.087 h, −βgd): 3.17 ± 2.56 ng/mL
concentration at 0.167 h ([1]; 250 mg/kg GE oral, 0.167 h, −βgd): 4.04 ± 5.37 ng/mL
concentration at 0.25 h ([1]; 250 mg/kg GE oral, 0.25 h, −βgd): 0.39 ± 0.55 ng/mL
concentration at 0.5 h ([1]; 250 mg/kg GE oral, 0.5 h, −βgd): 1.26 ± 1.78 ng/mL
concentration at 1 h ([1]; 250 mg/kg GE oral, 1 h, −βgd): 0.67 ± 0.95 ng/mL
concentration at 2 h ([1]; 250 mg/kg GE oral, 2 h, −βgd): 0.38 ± 0.54 ng/mL
concentration at 3 h ([1]; 250 mg/kg GE oral, 3 h, −βgd): 0 ng/mL
concentration at 4 h ([1]; 250 mg/kg GE oral, 4 h, −βgd): 0 ng/mL
concentration at 6 h ([1]; 250 mg/kg GE oral, 6 h, −βgd): 0 ng/mL
concentration at 8 h ([1]; 250 mg/kg GE oral, 8 h, −βgd): 0.05 ± 0.08 ng/mL
concentration at 12 h ([1]; 250 mg/kg GE oral, 12 h, −βgd): 0.37 ± 0.23 ng/mL
concentration at 0 h ([1]; 250 mg/kg GE with 50 mg/kg ketoconazole oral, 0 h, −βgd): 0 ng/mL
concentration at 0.087 h ([1]; 250 mg/kg GE with 50 mg/kg ketoconazole oral, 0.087 h, −βgd): 0.05 ± 0.07 ng/mL
concentration at 0.167 h ([1]; 250 mg/kg GE with 50 mg/kg ketoconazole oral, 0.167 h, −βgd): 0.94 ± 1.33 ng/mL
concentration at 0.25 h ([1]; 250 mg/kg GE with 50 mg/kg ketoconazole oral, 0.25 h, −βgd): 0 ng/mL
concentration at 0.5 h ([1]; 250 mg/kg GE with 50 mg/kg ketoconazole oral, 0.5 h, −βgd): 18600 ng/mL
concentration at 1 h ([1]; 250 mg/kg GE with 50 mg/kg ketoconazole oral, 1 h, −βgd): 12.5 ± 17.6 ng/mL
concentration at 2 h ([1]; 250 mg/kg GE with 50 mg/kg ketoconazole oral, 2 h, −βgd): 75900 ng/mL
concentration at 3 h ([1]; 250 mg/kg GE with 50 mg/kg ketoconazole oral, 3 h, −βgd): 2.33 ± 3.3 ng/mL
concentration at 4 h ([1]; 250 mg/kg GE with 50 mg/kg ketoconazole oral, 4 h, −βgd): 0 ng/mL
concentration at 6 h ([1]; 250 mg/kg GE with 50 mg/kg ketoconazole oral, 6 h, −βgd): 0 ng/mL
concentration at 8 h ([1]; 250 mg/kg GE with 50 mg/kg ketoconazole oral, 8 h, −βgd): 0 ng/mL
concentration at 12 h ([1]; 250 mg/kg GE with 50 mg/kg ketoconazole oral, 12 h, −βgd): 0 ng/mL
remaining at 0.5 h, 10 µM ([2]; CD1, pooled liver microsomes, pH 7.4, substrate 10 µM, n = 2, read-out: % Remaining at 30 min): 3%
Intrinsic Clearance ([2]; mouse liver microsomes, substrate 10 µM, 45 mg protein/g liver): 15.7 mL/min/g Liver
half-life at 10 µM [3]: < 30 min
Structure (SMILES): CCCCC/C=C/C(=O)CCc1ccc(O)c(OC)c1 [6S, 6-shogaol]
